Experimental data published in article PMC7835950 (Frontiers in Chemistry, 2021).
Where two headings read alike, the source gives them in different places.

Biological target: T1, OGDH (Rattus norvegicus, UniProt Q5XI78)
T1 sequence (Q5XI78 41-1023): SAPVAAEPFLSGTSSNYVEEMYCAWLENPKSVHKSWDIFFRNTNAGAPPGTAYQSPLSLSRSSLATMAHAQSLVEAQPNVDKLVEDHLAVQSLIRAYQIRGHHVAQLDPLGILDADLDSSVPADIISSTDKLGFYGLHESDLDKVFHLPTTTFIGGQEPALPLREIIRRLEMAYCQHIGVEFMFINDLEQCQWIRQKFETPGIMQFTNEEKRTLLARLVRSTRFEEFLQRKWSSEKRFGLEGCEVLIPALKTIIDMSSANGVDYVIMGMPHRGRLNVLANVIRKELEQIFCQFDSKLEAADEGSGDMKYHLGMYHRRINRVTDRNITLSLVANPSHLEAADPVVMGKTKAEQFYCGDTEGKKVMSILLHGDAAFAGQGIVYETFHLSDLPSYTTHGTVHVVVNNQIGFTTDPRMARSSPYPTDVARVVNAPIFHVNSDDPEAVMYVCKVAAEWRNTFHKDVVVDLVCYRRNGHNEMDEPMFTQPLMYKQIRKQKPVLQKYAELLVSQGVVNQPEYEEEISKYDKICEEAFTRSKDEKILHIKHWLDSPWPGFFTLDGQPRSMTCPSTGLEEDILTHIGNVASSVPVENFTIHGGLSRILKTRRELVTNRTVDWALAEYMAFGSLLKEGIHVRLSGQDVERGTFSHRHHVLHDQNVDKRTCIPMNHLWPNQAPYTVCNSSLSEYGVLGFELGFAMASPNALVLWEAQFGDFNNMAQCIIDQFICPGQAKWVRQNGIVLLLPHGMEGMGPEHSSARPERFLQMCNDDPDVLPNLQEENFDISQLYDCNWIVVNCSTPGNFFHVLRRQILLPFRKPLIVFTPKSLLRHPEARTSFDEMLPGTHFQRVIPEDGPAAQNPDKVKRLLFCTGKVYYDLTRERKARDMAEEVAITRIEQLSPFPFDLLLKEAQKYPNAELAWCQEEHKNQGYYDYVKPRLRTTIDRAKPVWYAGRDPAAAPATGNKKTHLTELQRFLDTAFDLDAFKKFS
T1 sequence (Q01205 69-454 partner): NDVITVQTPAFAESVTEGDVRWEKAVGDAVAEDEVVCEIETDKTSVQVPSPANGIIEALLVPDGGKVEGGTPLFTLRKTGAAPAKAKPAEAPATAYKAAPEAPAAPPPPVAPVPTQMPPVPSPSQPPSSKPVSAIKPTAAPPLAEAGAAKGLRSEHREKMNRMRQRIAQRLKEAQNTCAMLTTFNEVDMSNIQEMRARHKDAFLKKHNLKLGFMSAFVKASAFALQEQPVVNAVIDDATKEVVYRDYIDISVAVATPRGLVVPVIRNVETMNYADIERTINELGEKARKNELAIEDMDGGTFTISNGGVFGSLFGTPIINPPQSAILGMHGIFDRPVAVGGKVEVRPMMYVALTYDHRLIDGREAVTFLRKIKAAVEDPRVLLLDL
T1 sequence (Q6P6R2 36-509 partner): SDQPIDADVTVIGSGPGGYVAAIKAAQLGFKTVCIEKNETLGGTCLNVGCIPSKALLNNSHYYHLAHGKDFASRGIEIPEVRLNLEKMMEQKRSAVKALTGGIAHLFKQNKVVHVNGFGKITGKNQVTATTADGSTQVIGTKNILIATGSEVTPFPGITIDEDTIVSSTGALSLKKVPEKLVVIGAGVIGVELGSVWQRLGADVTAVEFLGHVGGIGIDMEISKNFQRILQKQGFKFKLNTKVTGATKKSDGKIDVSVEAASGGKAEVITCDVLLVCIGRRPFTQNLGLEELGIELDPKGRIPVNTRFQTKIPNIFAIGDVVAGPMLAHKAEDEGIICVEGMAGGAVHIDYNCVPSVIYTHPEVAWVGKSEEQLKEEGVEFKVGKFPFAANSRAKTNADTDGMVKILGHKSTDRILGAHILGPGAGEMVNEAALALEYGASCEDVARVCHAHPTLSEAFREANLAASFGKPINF
Test: OGDH reaction (OG saturation) catalyzed by the enzyme preparation from rat liver
Type: biochemical
Parameters: the tissue fractions with the complexes enriched to a degree allowing for a robust detection of the enzymatic activities, have been used; from tissue
Protocol: Reactions were started by addition of the enzyme preparations to the assay media. The amount of enzyme preparations (0.074 mg protein for the preparation from liver and 0.023 mg protein for the preparation from heart) were chosen to induce the lowest reliably measured reaction rate (ΔA340 = 0.001/min) at 0.01 mM OA without the phosphonates.
Reaction rates were calculated from linear parts of the product accumulation curves (up to 10 min, dependent on the reaction rate), excluding the initial region, where mixing the reagents and solubilization of the preparation affected the optical density.
The former equation describes one type of the active sites. […] The assumption was based on the presence of the two enzymes, OGDH and OADH, in the employed preparations.
The Km and Amax values obtained in independent experiments using the non-linear and linear regression analyses of the experimental data, were averaged and presented as Mean ± Standard Error of Mean.
The values of Ki were determined as the ratio of the corresponding Intercepts to the Slopes. In the two-site model, the Ki(1) and Ki(2) were calculated separately from the linear approximations of Km,1eff/Amax,1eff vs. [I] and Km,2eff/Amax,2eff vs. [I] dependences, respectively. […] The Ki values obtained from the non-linear and linear regression analyses of the experimental data were averaged and presented as Mean ± Standard Error of Mean.

[1] = Eadie-Hofstee, read-out: Ki, EH
[2] = Lineweaver-Burk, read-out: Ki, LB
[3] = Michaelis-Menten approximation, read-out: Ki, MM
[4] = average of MM, LB, EH, read-out: Ki, Average

O=C(O)CCCCC(=O)P(=O)(O)O [AP, adipoyl phosphonate]
Ki [1]: 326 ± 19 µM
Ki [2]: 361 ± 36 µM
Ki [3]: 405 ± 11 µM
Amax ([I] 0.5 µM): 0.040 ± 0.001 µmol/min per mg of protein
Amax ([I] 2 µM): 0.042 ± 0.001 µmol/min per mg of protein
Amax ([I] 10 µM): 0.042 ± 0.001 µmol/min per mg of protein
Amax ([I] 50 µM): 0.042 ± 0.001 µmol/min per mg of protein
Amax ([I] 200 µM): 0.045 ± 0.001 µmol/min per mg of protein
Amax ([I] 1000 µM): 0.049 ± 0.001 µmol/min per mg of protein
Amax ([I] 5000 µM): 0.039 ± 0.004 µmol/min per mg of protein
Ki [4]: 364 ± 23 µM

O=C(O)CCCC(=O)P(=O)(O)O [GP, glutaryl phosphonate]
Ki [1]: 6.2 ± 0.1 µM
Ki [2]: 5.6 ± 0.1 µM
Ki [3]: 7.3 ± 0.4 µM
Amax ([I] 2 µM): 0.045 ± 0.001 µmol/min per mg of protein
Amax ([I] 10 µM): 0.045 ± 0.001 µmol/min per mg of protein
Amax ([I] 50 µM): 0.044 ± 0.001 µmol/min per mg of protein
Amax ([I] 200 µM): 0.066 ± 0.011 µmol/min per mg of protein
Ki [4]: 6.3 ± 0.5 µM

O=C(O)CCC(=O)P(=O)(O)O [SP, succinyl phosphonate]
Ki (Ki, Average, average of MM, LB, EH): 7.4 ± 1.4 µM
Ki (Ki, EH, Eadie-Hofstee): 7.7 ± 0.1 µM
Ki (Ki, LB, Lineweaver-Burk): 4.9 ± 0.1 µM
Ki (Ki, MM, Michaelis-Menten approximation): 9.6 ± 0.2 µM
Amax ([I] 10 µM): 0.043 ± 0.001 µmol/min per mg of protein
Amax ([I] 50 µM): 0.041 ± 0.001 µmol/min per mg of protein
Amax ([I] 200 µM): 0.038 ± 0.002 µmol/min per mg of protein
Amax ([I] 1000 µM): 0.019 ± 0.002 µmol/min per mg of protein
